Values after ≈ are worked out from the molar mass of the structure shown.
Legend:
Formulated solubility = assay type: physicochemical
[1] = Pharmacokinetic study in mice, intravenous; assay type: in vivo; details: 25 mg/kg intravenous
Source text: Pharmacokinetic studies for evaluating pharmacokinetic properties of compounds are designed as follows. Male animals (mouse, Balb/c or rat, SD) aged five to six weeks and/or rats weighing more than 200 grams will be used for testing. One group will be untreated and samples taken to be used as a base line. The other three groups will be treated and administered a single dose of compounds by intravenous injection.
Dosing Procedure. Compounds will be administered via IV (lateral tail vein), IP or PO. Animals will be dosed in a systematic order that distributes the time of dosing similarly across all groups. For IP and PO dosing, animals will be manually restrained. For IV bolus dosing or short term IV infusion (one minute), animals will be mechanically restrained but not sedated. Disposable sterile syringes will be used for each animal/dose.
Approximately 0.5 ml of blood will be collected from the naive animals via cardiac puncture prior to the first dose. Terminal blood samples (0.5 ml) will be collected via cardiac puncture from two animals per group per time point according to the above chart. All samples will be placed in tubes containing lithium heparin as anticoagulant and mixed immediately by inverting. They will be centrifuged and the plasma flash frozen in liquid nitrogen, stored at −70° C. or greater and analyzed for drug levels.
A pharmacokinetic study to determine the time course of CX-3543 disposition was conducted in mice following intravenous administered of 25 mg/kg of CX-3543. Regular sampling was undertaken throughout a 24 hour period after IV dose administration, and the key derived pharmacokinetic parameters were derived. FIG. 11 provides the graphical representation of the pharmacokinetic profile of CX-3543 from which key parameters (Table 11) were obtained.
In FIG. 11, Cmax is the maximum CX-3543 plasma concentration attained (expressed in ng/ml); AUC0-inf is the area under the CX-3543 plasma concentration versus time curve, extrapolated from time zero to infinity (expressed in ng.hr/ml); T1/2 is the terminal half life of CX-3543 (expressed in hr); Vdss is the volume of distribution of CX-3543 at steady state (expressed in L/kg); and ClS is the systemic clearance of CX-3543 (expressed in L/hr/kg).

[2] = tested on: Chinese Hamster Ovary Cells (CHO); assay: In vitro chromosome aberration assay (incl. mitotic index); assay type: cell-based; details: for % MI 3 HRS + S9 / % MI 20 HRS / % MI: average mitotic index; for % MI: first column (time not given)
[3] = male, Balb/c, mouse, plasma, iv, 25 mg/kg

Structure (SMILES): CN1CCCC1CCNC(=O)c1cn2c3c(c(N4CCC(c5cnccn5)C4)c(F)cc3c1=O)Oc1cc3ccccc3cc1-2 (stereo not drawn) [CX-3543]
- solubility (Formulated solubility): ~20 mg/mL (≈ 33.1 mM)
- ClS [1]: 20.5 mL/min/kg
- Vd ([1]; male, Balb/c, mouse, plasma, read-out: Vdss): 7.26 L/kg
- AUC(0-inf) [1, 3]: ~20300 ng·h/mL
- Cmax [1, 3]: ~5350 ng/mL
- half-life [1, 3]: ~4.6 h
- % CA 3 HRS ([2]; CHO, 0.0016 mg/mL): 6.0%
- FI 3 HRS ([2]; CHO, 0.0016 mg/mL): 2.0
- % CA 3 HRS + S9 ([2]; CHO, 0.0016 mg/mL): 4.5%
- FI 3 HRS + S9 ([2]; CHO, 0.0016 mg/mL): 1.5
- % CA 20 HRS ([2]; CHO, 0.0016 mg/mL): 4.5%
- FI 20 HRS ([2]; CHO, 0.0016 mg/mL): 1.5
- % CA 3 HRS ([2]; CHO, 0.005 mg/mL): 5.5%
- FI 3 HRS ([2]; CHO, 0.005 mg/mL): 1.8
- % CA 3 HRS + S9 ([2]; CHO, 0.005 mg/mL): 8.4%
- FI 3 HRS + S9 ([2]; CHO, 0.005 mg/mL): 2.8
- % CA 20 HRS ([2]; CHO, 0.005 mg/mL): 5.0%
- FI 20 HRS ([2]; CHO, 0.005 mg/mL): 1.7
- % CA 3 HRS + S9 ([2]; CHO, 0.016 mg/mL): 9.0%
- FI 3 HRS + S9 ([2]; CHO, 0.016 mg/mL): 2.0
- mutagenicity (chromosome aberrations) ([2]; CHO, 3 h, 3 h + S9, 20 h): not mutagenic
- % MI 3 HRS + S9 ([2]; 0.0016 mg/mL): 12%
- % MI 20 HRS ([2]; 0.0016 mg/mL): 8%
- % MI ([2]; 0.0016 mg/mL): 6%
- % MI 3 HRS + S9 ([2]; 0.005 mg/mL): 9%
- % MI 20 HRS ([2]; 0.005 mg/mL): 4%
- % MI ([2]; 0.005 mg/mL): 8%
- % MI 3 HRS + S9 ([2]; 0.016 mg/mL): 1%
- % MI 20 HRS ([2]; 0.016 mg/mL): 0%
- % MI ([2]; 0.016 mg/mL): 1%
- % MI 3 HRS + S9 ([2]; 0.05 mg/mL): 0%
- % MI 20 HRS ([2]; 0.05 mg/mL): 0%
- % MI ([2]; 0.05 mg/mL): 0%
- % MI 3 HRS + S9 ([2]; 0.16 mg/mL): 0%
- % MI 20 HRS ([2]; 0.16 mg/mL): 1%
- % MI ([2]; 0.16 mg/mL): 0%
- % MI 3 HRS + S9 ([2]; 0.5 mg/mL): 0%
- % MI 20 HRS ([2]; 0.5 mg/mL): 0%
- % MI ([2]; 0.5 mg/mL): 0%

From patent US7507727B2, “Substituted quinobenzoxazine analogs and methods of using thereof” (Cylene Pharmaceuticals, Inc., priority 2003, dated 2009)
